# Read-outs that look alike come from different tables or passages of the source.
# Assays:
# [1] = prior-art product, exposed to air; cited from earlier work
# [2] = Particle size distribution by laser particle size analyzer; assay type: physicochemical; settings: hemihydrate
# Source text: The particle size distribution curves of the products in the embodiments of the present invention were all determined by Masterizer laser particle size analyzer from Malvern Panalytical (the U.K.).
# [3] = Flowability test (angle of repose); assay type: physicochemical
# Procedure: Flowability test: The angle of repose is the maximum angle formed between the free slope of a piled powder and the horizontal plane. It is measured when the particles achieve a static state as they slide on the free slope of the piled powder and experience a balance of gravity and interparticle friction. It is the easiest way to examine the flowability of a powder. The smaller the angle of repose, the smaller the friction and the better the flowability.
# [4] = Moisture absorption and agglomeration; assay type: physicochemical
# Bulk density test = assay type: physicochemical
flowability (in words) [3],bulk density (in words) (Bulk density test),Compound,moisture absorption and agglomeration [4],further results
–,–,NCCCC(=O)O,–,hygroscopicity [1]: highly hygroscopic
–,–,"NCCCC(=O)O [Embodiment 1, γ-aminobutyric acid hemihydrate]",did not easily absorb moisture and agglomerate,main particle size [2]: 110 μm; angle of repose ([3]; hemihydrate): 38 °; bulk density (Bulk density test; hemihydrate): 0.85 g/mL
good flowability,high bulk density,"NCCCC(=O)O [Embodiment 2, γ-aminobutyric acid hemihydrate]",did not easily absorb moisture and agglomerate,–
good flowability,high bulk density,"NCCCC(=O)O [Embodiment 3, γ-aminobutyric acid hemihydrate]",did not easily absorb moisture and agglomerate,–
good flowability,high bulk density,"NCCCC(=O)O [Embodiment 4, γ-aminobutyric acid hemihydrate]",did not easily absorb moisture and agglomerate,–
good flowability,high bulk density,"NCCCC(=O)O [Embodiment 5, γ-aminobutyric acid hemihydrate]",did not easily absorb moisture and agglomerate,–
good flowability,high bulk density,"NCCCC(=O)O [Embodiment 6, γ-aminobutyric acid hemihydrate]",did not easily absorb moisture and agglomerate,–
–,–,"NCCCC(=O)O [crude λ-aminobutyric acid raw material, γ-aminobutyric acid, reference compound]",–,angle of repose [3]: 50 °; bulk density (Bulk density test): 0.65 g/mL

# From patent publication US10487044B2, “Gamma-aminobutyric acid hemihydrate crystal and preparation method thereof” (priority 2016, dated 2019)
